Data as given in patent US11780849B2, “Imino sulfanone inhibitors of ENPP1” (Volastra Therapeutics, Inc., priority 2020, dated 2023).
Like-named read-outs stand apart in the source and are kept apart here.

Legend:
ENPP-1 ECD [1] = target: T1, ENPP-1 ECD (Homo sapiens (Human), UniProt P22413); test: Assay 1: inhibition of ENPP1 hydrolysis of 2′,3′-cGAMP (AMP-Glo, […] enzyme)
Experimental: Assay 1: Test compounds were plated in a 3× dilution scheme in a 384 well plate. […] AMP Detection solution (100 μL) was added to each well, the plate centrifuged and incubated for 60 min.

ENPP-1 ECD [2] = target: T1, ENPP-1 ECD; test: Assay 2: inhibition of ENPP1 hydrolysis of 2′,3′-cGAMP (AMP-Glo, […] enzyme)
Experimental: Assay 2: Compared to the conditions in Assay 1, this assay has a larger dynamic range and ensures the system is under steady-state conditions by reducing the enzyme concentration in the assay.
Test compounds were plated in a 3× dilution scheme in a 384 well plate. […] AMP Detection solution (10 μL) was added to each well, the plate centrifuged and incubated for 60 min.

[3] = target: ENPP1 on MDA-MB-231 cells (Homo sapiens (Human), UniProt P22413); test: Assay 3: inhibition of ENPP1 hydrolysis of AMP p-nitrophenyl ester on MDA-MB-231 cells
Experimental: Hydrolysis of the p-nitrophenyl ester of AMP (pNP-AMP), an isostere of ATP, is selectively catalyzed by ENPP1 in the supernatant of MDA-MB-231 cell cultures. Inhibition of the hydrolysis of pNP-AMP by MDA-MB-231 at pH 7.4 and 37° C., is a good model of physiologically relevant activity of membrane-bound ENPP1 at disease-relevant expression levels.
MDA-MB-231 cells were harvested using TypLE Express Enzyme digestion and suspended in 100 μL of Leibovitz's L-15 Medium, 20% FBS, seeding the cells in a 96-well assay plate with 4.5×10^4 cells/well. Cells were incubated at 37° C. with 1% CO2 for 24 h. In a separate dilution plate, 2× of top dose of compound was prepared in phenol-red free 1640 medium without FBS and then 1:3 serial diluted in the same medium. The cell culture medium of L15 medium was aspirated carefully and cells were washed with PBS once, and 50 μL per well of test compound or DMSO blank were added to the assay plate. Substrate mix (50 μL; 0.5 mM pNP-AMP in phenol-red free 1640 media without FBS) was added for a pNP-AMP final concentration of 0.25 mM. The system was incubated at 37° C. for 3 h.

[4] = Assay 1 (IC50), inhibition of ENPP1 hydrolysis of 2′,3′-cGAMP, no unit in Table 18 (Table 17 legend for this assay uses nM)
[5] = read-out: Assay 1 (IC50), ENPP1 hydrolysis of 2′,3′-cGAMP, AMP-Glo
[6] = Assay 2 (KI), ENPP1 hydrolysis of 2′,3′-cGAMP, AMP-Glo, […] ENPP-1, 24 μM cGAMP
[7] = Assay 2 (KI), inhibition of ENPP1 hydrolysis of 2′,3′-cGAMP, no unit in Table 18 (Table 17 legend for this assay uses nM)
[8] = read-out: Assay 1 (IC50), inhibition of ENPP1 hydrolysis of 2′,3′-cGAMP, no unit in Table 18 (Table 17 legend for this assay uses nM)
[9] = read-out: Assay 2 (KI), ENPP1 hydrolysis of 2′,3′-cGAMP, AMP-Glo, […] ENPP-1, 24 μM cGAMP
[10] = read-out: Assay 2 (KI), inhibition of ENPP1 hydrolysis of 2′,3′-cGAMP, no unit in Table 18 (Table 17 legend for this assay uses nM)
[11] = read-out: Assay 3 (KI, app), apparent KI from IC50 via Cheng/Prusoff, pNP-AMP […], MDA-MB-231 cells, pH 7.4, 37° C., 3 h, unit inferred
[12] = IC50 in Assay 1, […] ENPP-1 ECD, 24 μM 2,3-cGAMP, pH 8.0
[13] = Assay 1 (IC50), ENPP1 hydrolysis of 2′,3′-cGAMP, AMP-Glo
[14] = KI in Assay 2, […] ENPP-1 ECD, 24 μM 2,3-cGAMP, pH 8.0, converted from IC50 via Cheng/Prusoff

ENPP1 on MDA-MB-231 cells, sequence (P22413 whole entry): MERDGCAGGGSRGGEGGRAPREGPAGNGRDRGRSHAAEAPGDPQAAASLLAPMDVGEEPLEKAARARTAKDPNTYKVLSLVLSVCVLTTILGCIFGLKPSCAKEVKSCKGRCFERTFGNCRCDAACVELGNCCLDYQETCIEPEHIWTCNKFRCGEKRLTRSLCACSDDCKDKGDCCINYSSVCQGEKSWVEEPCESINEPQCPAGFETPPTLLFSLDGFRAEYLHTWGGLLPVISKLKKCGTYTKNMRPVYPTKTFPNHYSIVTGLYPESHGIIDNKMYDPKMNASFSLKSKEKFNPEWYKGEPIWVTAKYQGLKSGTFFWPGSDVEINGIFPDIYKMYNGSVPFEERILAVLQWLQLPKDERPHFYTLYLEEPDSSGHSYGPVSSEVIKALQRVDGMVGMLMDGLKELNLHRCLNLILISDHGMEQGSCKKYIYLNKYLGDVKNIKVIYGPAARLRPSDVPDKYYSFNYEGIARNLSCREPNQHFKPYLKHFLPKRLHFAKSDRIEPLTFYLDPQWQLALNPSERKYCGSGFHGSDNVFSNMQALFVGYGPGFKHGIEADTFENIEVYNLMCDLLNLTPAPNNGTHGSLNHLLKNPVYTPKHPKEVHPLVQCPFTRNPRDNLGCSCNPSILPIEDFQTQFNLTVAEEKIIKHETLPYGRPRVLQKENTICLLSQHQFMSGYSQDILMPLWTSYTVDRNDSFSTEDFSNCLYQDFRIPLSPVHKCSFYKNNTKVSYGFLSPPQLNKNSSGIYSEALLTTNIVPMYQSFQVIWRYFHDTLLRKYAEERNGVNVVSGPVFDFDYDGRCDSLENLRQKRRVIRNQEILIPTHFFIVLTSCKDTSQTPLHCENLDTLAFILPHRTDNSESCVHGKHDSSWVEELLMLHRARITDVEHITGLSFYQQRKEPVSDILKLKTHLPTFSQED
T1 sequence (P22413 98-925): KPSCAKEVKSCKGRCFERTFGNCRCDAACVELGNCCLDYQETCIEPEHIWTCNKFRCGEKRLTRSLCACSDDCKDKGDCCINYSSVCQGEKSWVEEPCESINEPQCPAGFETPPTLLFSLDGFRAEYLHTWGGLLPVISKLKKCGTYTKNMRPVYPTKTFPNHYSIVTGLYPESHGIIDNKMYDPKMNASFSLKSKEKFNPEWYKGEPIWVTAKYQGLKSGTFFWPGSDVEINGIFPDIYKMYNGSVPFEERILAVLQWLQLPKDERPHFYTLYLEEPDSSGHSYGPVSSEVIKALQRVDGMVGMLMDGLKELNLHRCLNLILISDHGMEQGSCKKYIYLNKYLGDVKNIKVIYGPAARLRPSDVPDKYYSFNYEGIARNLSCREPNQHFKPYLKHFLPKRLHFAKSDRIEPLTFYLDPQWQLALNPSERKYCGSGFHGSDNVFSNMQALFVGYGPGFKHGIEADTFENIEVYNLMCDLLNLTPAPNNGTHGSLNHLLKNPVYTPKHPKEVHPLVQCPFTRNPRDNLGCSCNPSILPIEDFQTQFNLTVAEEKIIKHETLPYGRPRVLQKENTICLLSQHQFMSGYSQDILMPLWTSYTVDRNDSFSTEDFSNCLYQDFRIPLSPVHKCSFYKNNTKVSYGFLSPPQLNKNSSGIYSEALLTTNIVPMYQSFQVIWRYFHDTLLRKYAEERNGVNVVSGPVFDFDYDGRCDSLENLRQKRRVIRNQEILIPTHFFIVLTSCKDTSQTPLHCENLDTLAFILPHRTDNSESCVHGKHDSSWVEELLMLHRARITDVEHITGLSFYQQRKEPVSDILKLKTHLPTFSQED

| Compound | IC50 (ENPP-1 ECD [1]; [4]) [nM] | IC50 (ENPP-1 ECD [1]; [5]) [nM] | Ki (ENPP-1 ECD [2]; [6]) [nM] | Ki (ENPP-1 ECD [2]; [7]) [nM] | Ki [3] [nM] | IC50 (ENPP-1 ECD [1]; [8]) [nM] | Ki (ENPP-1 ECD [2]; [9]) [nM] | Ki (ENPP-1 ECD [2]; [10]) [nM] | Ki [3, 11] [nM] | IC50 (ENPP-1 ECD [1]; [12]) [nM] | IC50 (ENPP-1 ECD [1]; [13]) [nM] | Ki (ENPP-1 ECD [2]; [14]) [nM] |
| --- | --- | --- | --- | --- | --- | --- | --- | --- | --- | --- | --- | --- |
| COc1ccc2c(OCc3ccc(S(C)(=N)=O)cc3)ccnc2c1 (centres unmarked) [Compound 75, imino(4-(((7-methoxyquinolin-4-yl)oxy)methyl)phenyl)(methyl)-λ^6-sulfanone] | 4.4 | < 10 | < 3 | 0.49 | 31 | – | – | – | – | – | – | – |
| COc1ccc2c(OCc3ccc([S@@](C)(=N)=O)cc3)ccnc2c1 [Compound 75a] | – | < 10 | – | – | – | 3 | < 3 | 0.38 | 22 | – | – | – |
| COc1ccc2c(Oc3ccc(S(C)(=N)=O)cc3)ccnc2c1 (centres unmarked) [Compound 80, imino(4-((7-methoxyquinolin-4-yl)oxy)phenyl)(methyl)-λ^6-sulfanone] | 6.2 | < 10 | < 3 | 1.1 | 29 | – | – | – | – | 1.4 | – | – |
| COc1ccc2c(Oc3ccc([S@@](C)(=N)=O)cc3)ccnc2c1 [Compound 80a] | – | < 10 | – | – | – | 2.2 | < 3 | 0.26 | 13 | – | – | – |
| COc1cc2ncnc(N3CCC(CNS(C)(=N)=O)CC3)c2cc1OC (centres unmarked) [Compound 94, N-((1-(6,7-dimethoxyquinazolin-4-yl)piperidin-4-yl)methyl)methanesulfonimidamide] | 6.6 | < 10 | < 3 | 1.3 | 83 | – | – | – | – | – | – | – |
| COc1ccc2c(Oc3ccc(S(C)(=N)=O)nc3)ccnc2c1 (centres unmarked) [Compound 101, imino({5-[(7-methoxyquinolin-4-yl)oxy]pyridin-2-yl})methyl-λ^6-sulfanone] | 40 | – | 3 to 300 | 5.4 | 300 | – | – | – | – | – | 10 to 1000 | – |
| CCS(=N)(=O)c1ccc(Oc2ccnc3cc(OC)ccc23)cc1 (centres unmarked) [Compound 103, ethyl(imino)(4-((7-methoxyquinolin-4-yl)oxy)phenyl)-λ^6-sulfanone] | 9 | < 10 | < 3 | 1.3 | 49 | – | – | – | – | – | – | – |
| CC[S@](=N)(=O)c1ccc(Oc2ccnc3cc(OC)ccc23)cc1 [Compound 103b] | – | < 10 | – | – | – | 2.2 | < 3 | 0.31 | 30 | – | – | – |
| COc1cc2nccc(Oc3ccc(S(C)(=N)=O)cc3)c2cc1F (centres unmarked) [Compound 114, {4-[(6-fluoro-7-methoxyquinolin-4-yl)oxy]phenyl}(imino)methyl-λ^6-sulfanone] | 2.8 | – | < 3 | 0.27 | 19 | – | – | – | – | – | – | – |
| COc1cc2nccc(Oc3ccc([S@](C)(=N)=O)cc3)c2cc1F [Compound 114a] | – | < 10 | – | – | – | 0.94 | < 3 | 0.088 | 6.3 | – | – | – |
| COc1cc2nccc(Oc3ccc(S(=N)(=O)C4CC4)cc3)c2cc1F (centres unmarked) [Compound 120, [cyclopropyl({4-[(6-fluoro-7-methoxyquinolin-4-yl)oxy]phenyl})imino-λ^6-sulfanyl]one] | 1.1 | < 10 | < 3 | 0.12 | 6.2 | – | – | – | – | – | – | – |
| COc1cc2nccc(Oc3ccc([S@@](=N)(=O)C4CC4)cc3)c2cc1F [Compound 120a] | – | < 10 | – | – | – | 0.46 | < 3 | 0.05 | 6.5 | – | – | – |
| COc1cc2nncc(Oc3ccc(S(C)(=N)=O)cc3)c2cc1OC (centres unmarked) [Compound 127, {4-[(6,7-dimethoxycinnolin-4-yl)oxy]phenyl}(imino)methyl-λ^6-sulfanone] | 30 | – | 3 to 300 | 5 | 380 | – | – | – | – | – | 10 to 1000 | – |
| COc1ccc2c(OCc3cccc(S(C)(=N)=O)c3)ccnc2c1 (centres unmarked) [Compound 133, imino(3-{[(7-methoxyquinolin-4-yl)oxy]methyl}phenyl)methyl-λ^6-sulfanone] | 1.4 | – | < 3 | 0.12 | 13 | – | – | – | – | – | – | – |
| COc1ccc2c(OCc3cccc([S@@](C)(=N)=O)c3)ccnc2c1 [Compound 133a] | – | < 10 | – | – | – | 0.5 | < 3 | 0.055 | 4.1 | – | – | – |
| COc1ccc2c(OCc3ccc(S(C)(=N)=O)cc3F)ccnc2c1 (centres unmarked) [Compound 135, (3-fluoro-4-{[(7-methoxyquinolin-4-yl)oxy]methyl}phenyl)(imino)methyl-λ^6-sulfanone] | 7.8 | – | < 3 | 1.4 | 110 | – | – | – | – | – | – | – |
| COc1cc2nccc(OCc3ccc(S(C)(=N)=O)cc3)c2cc1F (centres unmarked) [Compound 136] | 2 | < 10 | < 3 | 0.32 | 29 | – | – | – | – | – | – | – |
| COc1cc2nccc(OCc3ccc(S(C)(=N)=O)cc3)c2cc1OC (centres unmarked) [Compound 138, (4-{[(6,7-dimethoxyquinolin-4-yl)oxy]methyl}phenyl)(imino)methyl-λ^6-sulfanone] | 37 | – | 3 to 300 | 4.6 | 140 | – | – | – | – | – | 10 to 1000 | – |
| COc1cc2nccc(N3CCC(CCS(C)(=N)=O)CC3)c2cc1Cl (centres unmarked) [Compound 141, {2-[1-(6-chloro-7-methoxyquinolin-4-yl)piperidin-4-yl]ethyl}(imino)methyl-λ^6-sulfanone] | 2.1 | – | < 3 | 0.25 | 16 | – | – | – | – | – | – | – |
| COc1cc2nccc(N3CCC(CCS(C)(=N)=O)CC3)c2cc1F (centres unmarked) [Compound 150, {2-[1-(6-fluoro-7-methoxyquinolin-4-yl)piperidin-4-yl]ethyl}(imino)methyl-λ^6-sulfanone] | 8.6 | – | < 3 | 1.3 | 62 | – | – | – | – | – | – | – |
| COc1cc2nncc(N3CCC(CCS(C)(=N)=O)CC3)c2cc1OC (centres unmarked) [Compound 151, {2-[1-(6,7-dimethoxycinnolin-4-yl)piperidin-4-yl]ethyl}(imino)methyl-λ^6-sulfanone] | 6.2 | – | < 3 | 0.57 | 59 | – | – | – | – | – | – | – |
| COc1cc2ncc(C#N)c(N3CCC(CCS(C)(=N)=O)CC3)c2cc1Cl (centres unmarked) [Compound 152, 6-chloro-4-(4-{2-[imino(methyl)oxo-λ6-sulfanyl]ethyl}piperidin-1-yl)-7-methoxyquinoline-3-carbonitrile] | 2.4 | < 10 | < 3 | 0.41 | 26 | – | – | – | – | – | – | – |
| COc1cc2nccc(-c3ccc4c(c3)CN(S(C)(=N)=O)CC4)c2cc1OC (centres unmarked) [Compound 161, [7-(6,7-dimethoxyquinolin-4-yl)-1,2,3,4-tetrahydroisoquinolin-2-yl](imino)methyl-λ^6-sulfanone] | 1.3 | – | < 3 | 0.051 | 3.7 | – | – | – | – | 1.3 | – | – |
| COc1cc2nccc(Oc3ccc(S(N)(=O)=O)cc3)c2cc1OC [reference compound] | – | – | – | – | 380 | – | – | – | – | 190 | – | 32 |
| COc1cc2ncc(C#N)c(N3CCC4(CC3)CCN(S(N)(=O)=O)C4)c2cc1F [reference compound] | – | – | – | – | 24 | – | – | – | – | 2.9 | – | 0.47 |
